Test results: patent publication US4820721A, “1-aryl-5-(2-oxo-1-pyrrolidinyl)-1,2,3-triazolines as novel anticonvulsants” (priority 1988, dated 1989)

Assays:
[1] = maximal electroshock seizure (MES) test; assay type: in vivo; conditions: Mus musculus; Phase II; male albino mice
Procedure: (§1) The anticonvulsant activity was evaluated by subjecting male albino mice to the MES test and the scMet test. The maximal electroshock seizure test (MES) was performed according to the method of Swinyard et al (J. Pharmacol. Exp. Ther. 106, 319, 1952), and abolition of the hind limb tonic extensor component of the maximal seizures was defined as protection. In the subcutaneous pentylenetetrazole seizure threshold test (scMet), 85 mg/kg of pentylenetetrazol was administered as a 0.5% solution subcutaneously in the posterior midline, and failure to observe even a threshold seizure (a single episode of clonic spasms of at least 5-s duration) was defined as protection.

[2] = subcutaneous pentylenetetrazole (Metrazole) seizure threshold (scMet) test; assay type: in vivo; conditions: Mus musculus, sc; Phase II; male albino mice; 85 mg/kg pentylenetetrazol s.c.
Procedure: as §1

[3] = Phase I anticonvulsant activity (MES and scMet tests); assay type: in vivo; conditions: Mus musculus, male albino mice, read-out: Activity, Phase I (active dose)
Procedure: They afford protection in both the scMet and MES seizure models. The 1-p-chlorophenyl-5-(2-oxo-1-pyrrolidinyl)-1,2,3-triazoline is active in the 100 mg/kg dose and the 1-phenyl-5-(2-oxo-1-pyrrolidinyl)-1,2,3-triazoline is active in the 300 mg/kg dose.
as §1

in vivo = test: in vivo; design: species or system mice; conditions: mouse
Procedure: Neurotoxicity was evaluated by the rotorod ataxia test (Dunham et al, J. Am. Pharm. Assoc. Sci. Ed., 46, 208, 1957). The animal was placed on a wooden rod of 2.8-cm diameter rotating at 6 rpm. Normal mice can remain on a rod rotating at this speed indefinitely.

Compound | ED50 [1] [mg/kg] | ED50 [2] [mg/kg] | minimal effective dose [3] [mg/kg] | TD50 (in vivo) [mg/kg]
O=C1CCCN1C1CN=NN1c1ccc(Cl)cc1 (centres unmarked) [1-p-chlorophenyl-5-(2-oxo-1-pyrrolidinyl)-1,2,3-triazoline] | 116 | 77.2 | 100 | 249
O=C1CCCN1C1CN=NN1c1ccccc1 (centres unmarked) [1-phenyl-5-(2-oxo-1-pyrrolidinyl)-1,2,3-triazoline] | – | – | 300 | –
